Assay results published in US5821331A, “Anti-picornaviral agents” (Eli Lilly and Company, priority 1996, dated 1998).
Where a SMILES comes first, the peptide text is derived from it. The star is where a group is joined. Boc = CC(C)(C)OC(=O)*

How the values were obtained:
[1] = test system: 2C'3ABCD portion of the HRV polyprotein precursor; experiment: In Vitro Translation of HRV RNA (rabbit reticulocyte lysate, autoradiography); type: biochemical, human rhinovirus; conditions: for Processing of translated viral polyprotein (autoradiography): inhibitor included in cell-free translation assay
Text: In a cell-free translation system, when no inhibitor was present, RNA corresponding to the 2C'3ABCD portion of the HRV polypeptide precursor was translated into the various individual proteins of the virus. […]
Complementary DNA derived from the HRV genone and representing the 2C'3ABCD portion of the HRV polyprotein precursor (Lee W, Monroe S S, Reuckert R R (1993) J. Virol 67:211-2122) was inserted into the commercially available pCITE vector (Novagen, 565 Science Dr., Madison, Wis.). The vector is supplied with the Novagen Red Nova® Lysate translation assay kit, which provides a lysate of New Zealand White rabbit reticulocytes along with other reagents, that allows for efficient cell-free synthesis of proteins from exogenous RNA templates.
The pCITE 2C'3ABCD-containing plasmid was used to transform the JM101 cell line (Stratagene, La Jolla, Calif.) which was then grown under standardard conditions ([…], 37° C.) in 2× YT broth with ampicillin. The plasmid was then isolated by standard CsCl banding procedures.
The DNA was linearized by treatign the plasmid with 2 unitsMlu 1 restriction enzyme per μg DNA for 3 hours at 37° C., followed by proteinase K (50 μg/mL) treatment for 30 minutes at 37° C. The mixture was extracted twice with phenol/chloroform/isoamyl alcohol (1:1:1) followed by two extractions with chloroform/isoamyl alcohol (1:1). A 0.1 volume 3M sodium acetate (NaOAc), pH 5.2 and two volumes of 100% ethanol were added before placing at -80° C. for 60 minutes. The supernatant was decanted and the pellet was rinsed with 70% ethanol, dried under vacuum, and then resuspended in 25 μL Tris-EDTA buffer (10 mM Tris, 1 mM EDTA; pH 7.6). […]
The compounds of Formula I were assayed according to the Red Nova protocol for their ability to inhibit translation of the rhinoviral RNA by the reticulocyte lysate. ^3 H-Leucine (5 mCi/mL) was included in the assay mixture so that translation products could be identified by autoradiography when the samples were analyzed by SDS polyacrylamide gel electrophoresis. […]

[2] = test system: HRV; experiment: Whole Cell Culture Assay of Anti-HRV Activity (Hela cells, XTT); type: cell-based, human rhinovirus; conditions: concentration not given
Method: A third measure of antiviral activity was performed by determining the effects of selected 3C protease inhibitors of Formula I on HRV infection in cultures of Hela cells.
Commercially available Hela cells are susceptible to HRV infection. The virus enters the cells where it readily replicates and when infection levels become high enough, the Hela cells die. The effect of HRV inhibitors can be measured in Hela cultures by first exposing the cells to HRV and shortly thereafter (before viral infection becomes critical) adding potential inhibitors. Compounds which inhibit 3C protease activity serve to protect the cells from the cytopathic effect of the virus. Comparison of viability in cultures receiving serial dilutions of inhibitor to cultures not receiving any inhibitor allows quantitation of the antiviral effect. Any toxic effect of the inhibitor can also be measured by comparing viability of treated cultures with those cultures which are not infected with the virus.
Viability determinations can be readily made by direct counts of viable cells or by assays representative of viability such as measurement of mitochondrial enzyme activity.
Hela cells were dispersed in a 96-well tissue culture plate at 20,000 cells per well with minimum essential medium containing Earl's balanced salt solution, 1% fetal bovine serum, penicillin (150 units/mL) and streptomycin (150 μg/mL). […]

Row | Compound | Processing of translated viral polyprotein (autoradiography) [1] | Translation Assay (toxic) ([1]; at the dose tested (dose not given)) | Whole Cell Antiviral Testing (toxic) [2]
1 | CC(=O)N[C@@H](CC(C)C)C(=O)N[C@@H](Cc1ccccc1)C(=O)N[C@H](C=O)CCC(N)=O [Example 6, N-(Acetyl-L-leucinyl-L-phenylalanyl)-L-glutamine aldehyde] (Ac-Leu-Phe-Gln-aldehyde) | single unprocessed band | – | –
2 | CC(C)C[C@H](NC(=O)[C@@H](NC(=O)OC(C)(C)C)C(C)C)C(=O)N[C@@H](Cc1ccccc1)C(=O)N[C@H](C=O)CCC(N)=O [Example 5, N-(t-butoxycarbonyl-L-valinyl-L-leucinyl-L-phenylalanyl)-L-gluatamine aldehyde] (Boc-VLFQ-aldehyde) | single unprocessed band | – | –
3 | CC(C)C[C@H](N)C(=O)N[C@@H](Cc1ccccc1)C(=O)N[C@H](C=O)CCC(N)=O [Example 7, N-(L-leucinyl-L-phenylalanyl)-L-glutamine aldehyde] (H-Leu-Phe-Gln-aldehyde) | – | toxic | toxic
